The subject of assay [1] is primary B cells infected with EBV B95-8. Nature of the assay: EBV-driven B cell transformation efficiency assay (LCL outgrowth). Format: cell-based, human. The conditions noted are these: for restoration of EBV's capacity to latently infect/transform B cells in the presence of BMS-986205: 10 μM BMS-986205 plus 50 μM L-KYNU or 500 μM NaMN, added day 0; for rescue of the capacity of EBV to transform IDO1-blocked B cells: summary statement, added together with IDO1 inhibitor. As for the experimental part:
Transformation efficiency was analyzed 5 weeks post infection and plotted against the added multiplicity of infection (MOI).
Data are represented as median value of indicated individual data points (n=4 independent experiments) relative to Ctrl siRNA (set at one), and compared using two-tailed Student's t-test.
An IDO1 inhibitor as disclosed herein can inhibit B cell transformation. Preferably, an IDO1 inhibitor as disclosed herein can inhibit EBV-induced B cell transformation. Transformation can be analysed by methods known in the art, for example using a transformation efficiency assay. In this assay B cells are seeded into a cell culture plate and infected with increasing virus concentrations. An IDO1 inhibitor can be added immediately after infection. After an incubation period of 5 weeks, the number of wells positive for LCL outgrowth are counted. Alternatively, any other suitable assay can be used. Suitably, an IDO1 inhibitor as disclosed herein can inhibit B cell transformation at a concentration of about 200 μM or less, about 150 μM or less, about 100 μM or less, about 50 μM or less, about 20 μM or less, about 15 μM or less, about 10 μM or less, about 5 μM or less, or about 1 μM or less, preferably about 100 μM or less or about 10 μM or less in the assays described herein. An IDO1 inhibitor as disclosed herein can be any one of the IDO inhibitors as disclosed herein that can inhibit B cell transformation, preferably EBV-induced B cell transformation.
Bulk B cells were seeded at a final concentration of 1×10^6 cells/ml in LCM-10 medium in a 96-well round bottom plate and infected with increasing concentration of EBV B95-8 (MOI 1×10^3-1×10^−4) by spinoculation. […] 5 weeks post-infection the number of wells with morphologic changes of transformation was counted and plotted as percentage of wells positive for LCL outgrowth against virus concentration in MOI.

Assay [2] shares this test system. In words: EBV-driven B cell proliferation, CellTrace Violet flow cytometry assay. Format: cell-based, human. The following applies: different BMS-986205 concentrations added at 0 hpi; analyzed 8 days post infection; vs vehicle. The protocol:
Proliferation was analyzed in the presence of vehicle or different BMS-986205 concentrations added on day 0 post EBV-infection of primary B cells (n=2). Uninfected and h.i. EBV infected cells served as internal controls. Proliferation was analyzed 8 days post infection by flow cytometry using a cell trace violet based assay.
Bulk B cells were stained with CellTraceTM Violet (Cell Proliferation Kit, ThermoFisher) then infected with EBV B95-8 as described above. Proliferation was assessed by determining the number of proliferated cells (cells that had proliferated at least once after infection) with IDO1 inhibitor/number of proliferated cells with vehicle control.

The test system of assay [3] is IDO1. In words: IDO1 inhibition in humanized mouse model of EBV infection: tryptophan and L-kynurenine levels. Format: in vivo, humanized NSG mice. The following applies: Epacadostat 200 mg/kg i.p.; d -7, day 2 and day 7 pi; vs vehicle (FIG. 10). The protocol: Data are shown as box and whiskers (median, IQR and range) and compared by two-tailed Student's t-test.
(§1) A humanized mouse model of EBV infection was then used to directly interrogate the role of IDO1 in EBV-driven immune dysregulation and lymphomagenesis. Briefly, NSG mice (Jackson Laboratory, Bar Harbor, ME, USA) were injected with human hematopoietic progenitor cells shortly after birth, and reconstitution with human immune system components was confirmed at 3-4 months of age (data not shown). […]. Efficacy of Epacadostat-mediated IDO1 inhibition was verified by quantifying tryptophan and L-kynurenine plasma levels (FIG. 10). EBV viral loads were assessed in DNA preparations from whole blood at week 2, 3, 4, and 5 pi, and in the spleen at the day of sacrifice, using Taqman real-time PCR with modified primers (5′-[…]-3′ and 5′-[…]-3′) and a fluorogenic probe (5′-FAM […]-TAMRA-3′) to detect the conserved EBV BamHI-W fragment. Samples were analyzed in triplicates and run on a CFX384 Touch Real-time PCR Detection System (Bio-Rad). DNA from whole blood was extracted with the NucliSENS EasyMAG System (Biornerieux) and DNA from splenic tissues was isolated using the DNeasy Blood and Tissue kit (QIAGEN), according to the manufacturer's recommendations.

Assay [4] concerns EBV-positive tumors. In words: EBV-positive tumor burden, humanized mouse model of EBV infection. Format: in vivo, humanized NSG mice. The conditions noted are these: Epacadostat i.p. vs vehicle, n=10 each (FIG. 13A-13C); text concludes reduced lymphomagenesis. As for the experimental part: […]. A Chi-Square test was used to compare groups.
(lower panels) are shown, stained with hematoxylin and eosin (HE) (left panels) and EBER FISH (right panels).
A Chi-Square test was used to compare groups. […].
as §1

The test system of assay [5] is EBV. Nature of the assay: EBV viral loads in blood and spleen, humanized mouse model (Taqman real-time PCR). In kind it is in vivo, humanized NSG mice. As for the experimental part: […]. Data are shown as median values from the indicated individual measurements, compared using two-tailed Student's t-test.
(§2) Median values from the indicated individual measurements are shown, compared using two-tailed Student's t-test.
as §1
On the technique in general: Real-time PCR tracks product formation cycle by cycle.

Assay [6] has as its system CD8+ T cells. In words: CD8+ T cell expansion, humanized mouse model of EBV infection. Format: in vivo, humanized NSG mice. The conditions noted are these: Epacadostat i.p. The protocol: as §2
Data are shown as medians and two-tailed Student's t-test was used to compare groups.
as §1

[7] abbreviates: 5 weeks post infection (FIG. 6A).

Take `O=C(O)c1ccc[n+]([C@@H]2O[C@H](COP(=O)(O)O)[C@@H](O)[C@H]2O)c1` [NaMN]: the “restoration of EBV's capacity to latently infect/transform B cells in the presence of BMS-986205” value in assay [1] (setting [7]) was “fully restored”. The “transformation efficiency compared to vehicle” value in assay [1] (10 μM BMS-986205 plus 500 μM NaMN, day 0, 5 weeks post infection (FIG. 6A)) was “slightly increased”. In assay [1] (100 μM Epacadostat plus 500 μM NaMN, day 0, 5 weeks post infection (FIG. 6B)), the “rescue of transformation of B cells in the presence of Epacadostat” value is reported as “fully rescued”. For the same compound, the “rescue of the capacity of EBV to transform IDO1-blocked B cells” value in assay [1] is “fully rescue”.
As to `C[C@@H](C(=O)Nc1ccc(Cl)cc1)C1CCC(c2ccnc3ccc(F)cc23)CC1` (stereo partly shown) [BMS-986205], in assay [1] (10 μM BMS-986205 added at 0 hpi, analyzed 5 weeks post infection, vs vehicle), the “EBV driven B cell transformation” value is on record as “efficiently suppressed”. For the same compound, the “EBV driven B cell proliferation” value in assay [2] was “inhibited in a dose-dependent manner”.
In the case of `NS(=O)(=O)NCCNc1nonc1C(=NO)Nc1ccc(F)c(Br)c1` [Epacadostat], in assay [1] (100 μM Epacadostat added at 0 hpi, 5 weeks post infection (FIG. 6B)), the “transformation of EBV-infected B cells” value is given as “efficiently suppressed”. In assay [3], the “efficacy of IDO1 inhibition by tryptophan and L-kynurenine plasma levels” value is “verified”. Also, in assay [4], the “effect on EBV-driven B cell tumorigenesis (macroscopic and microscopic tumor burden)” value is “equally clear”. For the same compound, the splenic viral loads entry in assay [5] (Epacadostat i.p., 5 weeks pi, vs vehicle-treated (FIG. 11B)) was “borderline reduced”. In addition, the “blood EBV load” value in assay [5] (Epacadostat i.p., AUC of viral load 2-5 weeks pi, vs vehicle-treated (FIG. 11A)) is “efficiently reduced”. Further, the “effect on viral loads” value in assay [5] (treated throughout the experiment and also treated for only 2 weeks after infection (data not shown)) is on record as “observed”. The “Splenic CD8VCD4^+ T cell ratios” value in assay [6] (day of sacrifice (FIG. 12C)) is listed as “remained unchanged”. For the same compound, in assay [6] (week 0 to week 5 pi, vs vehicle (FIG. 12A and 12B)), the “expansion of peripheral blood CD8+ T cells” value is recorded as “prevented”.
Regarding `Nc1ccccc1C(=O)C[C@H](N)C(=O)O` [L-KYNU, L-Kynurenine], the “restoration of EBV's capacity to latently infect/transform B cells in the presence of BMS-986205” value in assay [1] (setting [7]) is reported as “partially restored”. In addition, the “rescue of the capacity of EBV to transform IDO1-blocked B cells” value in assay [1] is “partially and dose-dependently rescued”.

Source of the values: patent US20240091202A1, “COMPOSITIONS FOR THE TREATMENT OF EBV ASSOCIATED DISEASES OR CONDITIONS” (Universität Basel, priority 2021, published 2024).
